Measured values published in patent publication US20160281125A1, “ANTIMICROBIAL COMPOUND SUSCEPTIBILITY TEST” (priority 2013, published 2016).

Columns and labels:
E. clo 13047 = assay: Selective lysis test, OD600 turbidity (Example 1); format: cell-based, Enterobacter cloacae
Method: (§1) An isolated colony from an overnight Tryptocase Soy Agar (TSA) plate of each bacterial strain was suspended in 1 ml Tryptocasc Soy Broth (TSB) in a 5 ml BD polystyrene round bottom tube. TSB cultures were incubated shaking at 37° C. overnight. Ten of the overnight culture was inoculated into lml TSB and incubated shaking at 37° C. for three hours. Two […] aliquots of each log-phase culture were then transferred to two 2 ml Eppendorf microcentrifuge tubes. One tube contained 5000 of Normal Saline (BD); the second tube contained 5000 Normal Saline with meropenem at 10 μg/ml (final concentration of meropenem of 6.67 10 μg/ml). Tubes were inverted and then incubated at 37° C. stagnant for thirty minutes. Then […] of lysis buffer (0.5% SDS in PSB) (final concentration of SDS of 0.125%) was added to each tube and the tubes were vortexed for 5 seconds. Post incubation, all tubes were spun at 10000 G for 5 minutes. Supernatant was decanted and the pellet resuspended in Normal Saline. Tubes were vortexed again. OD600 was measured using Eppendorf uvettes in a spectrophotometer. The delta between the OD600 of the normal saline control and the OD600 for the test sample exposed to meropenem in normal saline was used to determine susceptibility of the bacterial strain to meropenem.

E. coli 23848 = assay: Selective lysis test, OD600 turbidity (Example 1); format: cell-based, Escherichia coli
Method: as §1

E. coli 25922 = assay: Selective lysis test, OD600 turbidity (Example 1); format: cell-based, Escherichia coli
Method: as §1

E. coli 35218 = assay: Selective lysis test, OD600 turbidity (Example 1); format: cell-based, Escherichia coli
Method: as §1

E. coli 51422 = assay: Selective lysis test, OD600 turbidity (Example 1); format: cell-based, Escherichia coli
Method: as §1

E. coli ESBL 790 = assay: Selective lysis test, OD600 turbidity (Example 1); format: cell-based, Escherichia coli
Method: as §1

E. coli ESBL Baa197 = assay: Selective lysis test, OD600 turbidity (Example 1); format: cell-based, Escherichia coli; settings: for % Change: OD600 vs control without meropenem
Method: as §1

E. coli JM109 = assay: Selective lysis test, OD600 turbidity (Example 1); format: cell-based, Escherichia coli
Method: as §1

K. oxy 43086 = assay: Selective lysis test, OD600 turbidity (Example 1); format: cell-based, Klebsiella oxytoca
Method: as §1

K. pneumo 33495 = assay: Selective lysis test, OD600 turbidity (Example 1); format: cell-based, Klebsiella pneumoniae
Method: as §1

K. pneumo 700603 = assay: Selective lysis test, OD600 turbidity (Example 1); format: cell-based, Klebsiella pneumoniae
Method: as §1

K. pneumo 8308 = assay: Selective lysis test, OD600 turbidity (Example 1); format: cell-based, Klebsiella pneumoniae
Method: as §1

K. pneumo 9633 = assay: Selective lysis test, OD600 turbidity (Example 1); format: cell-based, Klebsiella pneumoniae
Method: as §1

K. oxy KPC 46532 = assay: Selective lysis test, OD600 turbidity (Example 1); format: cell-based, Klebsiella oxytoca
Method: as §1
(§2) The tested resistant strains were Klebsiella pneumoniae carbapenemase (KPC)-producing bacteria (abbreviated “KPC”), KPC-producing Klebsiella oxytoca (abbreviated “KPC K. oxy), and Klebsiella pneumoniae producing Metallo-beta-lactamase-1 (NDM-1) (abbreviated “NDM”).

K. pneumo KPC 12213 = assay: Selective lysis test, OD600 turbidity (Example 1); format: cell-based, Klebsiella pneumoniae
Method: as §1, §2

E. coli BAA-197 (ESBL) = assay: Selective lysis test, OD600, meropenem and cefotaxime (Example 2); format: cell-based
Method: In this experiment the following strains were tested: strain K. pneumoniae 13882 (previously considered meropenem sensitive and cefotaxime sensitive); E. coli BAA-197 (ESBL) (which expresses an extended-spectrum (beta)-lactamase enzyme and was previously considered meropenem sensitive and cefotaxime resistant); K. pneumoniae BAA-1705 (KPC) (which expresses a carbapenemase enzyme and was previously considered meropenem resistant and cefotaxime resistant); and K. pneumoniae BAA-2146 (NDM1) (which expresses the metallo-beta-lactamase-1 enzyme and was previously considered meropenem resistant and cefotaxime resistant).
An isolated colony from an overnight Tryptocase Soy Agar (TSA) plate of each bacteria was suspended in 1 ml Tryptocase Soy Broth (TSB) in a 5 ml BD polystyrene round bottom tube. TSB cultures were incubated at 37° C. for 1.5 hours shaking. Three 250 μl aliquots of each stationary-phase culture were then transferred to three 2 ml Eppendorf microcentrifuge tubes. One tube contained 500 μl of Normal Saline (BD); the second tube contained 500 μl Normal Saline with meropenem at 10 μg/ml; and the third tube contained 500 μl Normal Saline with cefotaxime (abbreviated […]) at 10 μg/ml. Tubes were inverted then incubated at 37° C. stagnant for thirty minutes. Then […] of lysis buffer (0.5% SDS in PSB) was added to each tube and each tube was vortexed for 5 seconds. Post incubation, all tubes were spun at 10000 G for 5 minutes. Supernatant was decanted and the pellet resuspended in Normal Saline. Tubes were vortexed. OD600 was measured using Eppendorf uvettes in a spectrophotometer. The delta between the control and the meropenem normal saline, or the control and the cefotaxime normal saline was used to determine susceptibility.

[1] = tested on: strains previously considered susceptible to meropenem; assay: Selective lysis OD600 test, summary over the strains of Table 1; format: cell-based, Enterobacteriaceae; settings: 13 of 14 strains of Table 1
Method: as §1
Species abbreviations: sp. […]

[2] = OD600 vs control without meropenem
[3] = meropenem 10 μg/ml, 30 min, SDS lysis buffer + vortex

With `C[C@@H](O)[C@H]1C(=O)N2C(C(=O)O)=C(S[C@@H]3CN[C@H](C(=O)N(C)C)C3)[C@H](C)[C@H]12` [meropenem] the “R or S” value (E. clo 13047) was “S (a percentage change of greater than about 85% indicates a strain is susceptible)”, the “% Change” value (E. clo 13047; [2]) was 95% and the “Mero OD600” value (E. clo 13047; [3]) was 0.06. The “R or S” value (E. coli 23848) was “S (a percentage change of greater than about 85% indicates a strain is susceptible)”, the “% Change” value (E. coli 23848; [2]) was 97% and the “Mero OD600” value (E. coli 23848; [3]) was 0.021. For the same molecule, the “R or S” value (E. coli 25922) was “S (a percentage change of greater than about 85% indicates a strain is susceptible)”, the “% Change” value (E. coli 25922; [2]) was 97% and the “Mero OD600” value (E. coli 25922; [3]) was 0.064. The “R or S” value (E. coli 35218) was “S (a percentage change of greater than about 85% indicates a strain is susceptible)”, the “% Change” value (E. coli 35218; [2]) was 90% and the “Mero OD600” value (E. coli 35218; [3]) was 0.1. The “R or S” value (E. coli 51422) was “S (a percentage change of greater than about 85% indicates a strain is susceptible)”, the “% Change” value (E. coli 51422; [2]) was 98% and the “Mero OD600” value (E. coli 51422; [3]) was 0.031. For the same molecule, the “R or S” value (E. coli ESBL 790) was “S (a percentage change of greater than about 85% indicates a strain is susceptible)”, the “% Change” value (E. coli ESBL 790; [2]) was 87% and the “Mero OD600” value (E. coli ESBL 790; [3]) was 0.126. The “R or S” value (E. coli ESBL Baa197) was “S (a percentage change of greater than about 85% indicates a strain is susceptible)”, the “% Change” value (E. coli ESBL Baa197) was 74% and the “% Change” value (E. coli ESBL Baa197; listed as Mero) was 74%. The “Mero OD600” value (E. coli ESBL Baa197; [3]) was 0.236, the “R or S” value (E. coli JM109) was “S (a percentage change of greater than about 85% indicates a strain is susceptible)” and the “% Change” value (E. coli JM109; [2]) was 88%. The “Mero OD600” value (E. coli JM109; [3]) was 0.079, the “R or S” value (K. oxy 43086) was “S (a percentage change of greater than about 85% indicates a strain is susceptible)” and the “% Change” value (K. oxy 43086; [2]) was 99%. For the same molecule, the “Mero OD600” value (K. oxy 43086; [3]) was 0.02, the “R or S” value (K. pneumo 33495) was “S (a percentage change of greater than about 85% indicates a strain is susceptible)” and the “% Change” value (K. pneumo 33495; [2]) was 95%. The “Mero OD600” value (K. pneumo 33495; [3]) was 0.097, the “R or S” value (K. pneumo 700603) was “S (a percentage change of greater than about 85% indicates a strain is susceptible)” and the “% Change” value (K. pneumo 700603; [2]) was 94%. For the same molecule, the “Mero OD600” value (K. pneumo 700603; [3]) was 0.065, the “R or S” value (K. pneumo 8308) was “S (a percentage change of greater than about 85% indicates a strain is susceptible)” and the “% Change” value (K. pneumo 8308; [2]) was 98%. The “Mero OD600” value (K. pneumo 8308; [3]) was 0.053, the “R or S” value (K. pneumo 9633) was “S (a percentage change of greater than about 85% indicates a strain is susceptible)” and the “% Change” value (K. pneumo 9633; [2]) was 99%. For the same molecule, the “Mero OD600” value (K. pneumo 9633; [3]) was 0.015, the “R or S” value (K. oxy KPC 46532) was “S (a percentage change of greater than about 85% indicates a strain is susceptible)” and the “% Change” value (K. oxy KPC 46532; [2]) was 71%. The “Mero OD600” value (K. oxy KPC 46532; [3]) was 0.259, the “R or S” value (K. pneumo KPC 12213) was “R” and the “% Change” value (K. pneumo KPC 12213; [2]) was −5%. The “Mero OD600” value (K. pneumo KPC 12213; [3]) was 1.454, the “assay score (sensitive or resistant)” value (E. coli BAA-197 (ESBL)) was “sensitive” and the “% diff” value (E. coli BAA-197 (ESBL); OD600 vs control) was 87.3%. The OD600 (E. coli BAA-197 (ESBL); antibiotic 10 μg/ml, 30 min, SDS lysis buffer + vortex, 1.5 h culture) was 0.046 and the “decrease of OD600 turbidity vs negative control” value [1] was “at least 88%”.
